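Results reflect a 48-hour exposure of cells in 96-well plates to compound at five concentrations. The concentration for 50% growth inhibition is given as GI50. TGI marks complete inhibition of growth.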
Assays:
Assay in all cases: DTP human tumour cell line panel, 48 h
A498 renal = system: A498 renal
BT-549 breast = system: BT-549 breast
PC-3 prostate = system: PC-3 prostate
MDA-MB-231 breast = system: MDA-MB-231 breast
U251 CNS = system: U251 CNS
EKVX NSCLC = system: EKVX NSCLC
DU-145 prostate = system: DU-145 prostate
OVCAR-4 ovarian = system: OVCAR-4 ovarian
SF-295 CNS = system: SF-295 CNS
OVCAR-8 ovarian = system: OVCAR-8 ovarian
HL-60(TB) leukemia = system: HL-60(TB) leukemia
NCI-H226 lung = system: NCI-H226 lung
T-47D breast = system: T-47D breast
SF-268 CNS = system: SF-268 CNS
HOP-92 NSCLC = system: HOP-92 NSCLC
UACC-62 melanoma = system: UACC-62 melanoma
SK-MEL-5 melanoma = system: SK-MEL-5 melanoma
K-562 leukemia = system: K-562 leukemia
CAKI-1 renal = system: CAKI-1 renal
M14 melanoma = system: M14 melanoma
SK-OV-3 ovarian = system: SK-OV-3 ovarian
COLO 205 colon = system: COLO 205 colon
HS 578T breast = system: HS 578T breast
HOP-62 NSCLC = system: HOP-62 NSCLC
TK-10 renal = system: TK-10 renal
KM12 colon = system: KM12 colon
UACC-257 melanoma = system: UACC-257 melanoma
ACHN renal = system: ACHN renal
HCC-2998 colon = system: HCC-2998 colon
UO-31 renal = system: UO-31 renal
MCF7 breast = system: MCF7 breast
LOX IMVI melanoma = system: LOX IMVI melanoma
OVCAR-3 ovarian = system: OVCAR-3 ovarian
SK-MEL-2 melanoma = system: SK-MEL-2 melanoma
SNB-19 CNS = system: SNB-19 CNS
NCI-H460 lung = system: NCI-H460 lung
A549 NSCLC = system: A549 NSCLC
OVCAR-5 ovarian = system: OVCAR-5 ovarian
NCI/ADR-RES ovarian = system: NCI/ADR-RES ovarian
MOLT-4 leukemia = system: MOLT-4 leukemia
NCI-H522 lung = system: NCI-H522 lung
CCRF-CEM leukemia = system: CCRF-CEM leukemia
SNB-75 CNS = system: SNB-75 CNS
NCI-H23 lung = system: NCI-H23 lung
IGROV1 ovarian = system: IGROV1 ovarian
RPMI-8226 leukemia = system: RPMI-8226 leukemia
SF-539 CNS = system: SF-539 CNS
HCT-116 colon = system: HCT-116 colon
SN12C renal = system: SN12C renal
SK-MEL-28 melanoma = system: SK-MEL-28 melanoma
MDA-MB-468 breast = system: MDA-MB-468 breast
MALME-3M melanoma = system: MALME-3M melanoma
HT29 colon = system: HT29 colon
786-0 renal = system: 786-0 renal
RXF 393 renal = system: RXF 393 renal
SW-620 colon = system: SW-620 colon
MDA-MB-435 = system: MDA-MB-435
HCT-15 colon = system: HCT-15 colon
SR leukemia = system: SR leukemia

Nc1ccc(-c2ccc3ncnc(N4CCc5cc(F)c(Cl)cc54)c3c2)cn1
GI50 (A498 renal): 0.185 µM
TGI (A498 renal): 2.56 µM
GI50 (BT-549 breast): 1.35 µM
TGI (BT-549 breast): 8.24 µM
GI50 (PC-3 prostate): 2.3 µM
TGI (PC-3 prostate): 27 µM
GI50 (MDA-MB-231 breast): 2.84 µM
TGI (MDA-MB-231 breast): 15.2 µM
GI50 (U251 CNS): 3.3 µM
TGI (U251 CNS): 24.6 µM
GI50 (EKVX NSCLC): 1.26 µM
TGI (EKVX NSCLC): 13.8 µM
GI50 (DU-145 prostate): 1.61 µM
TGI (DU-145 prostate): 15.8 µM
GI50 (OVCAR-4 ovarian): 3.11 µM
TGI (OVCAR-4 ovarian): 18.8 µM
GI50 (SF-295 CNS): 2.39 µM
TGI (SF-295 CNS): 16 µM
GI50 (OVCAR-8 ovarian): 4.31 µM
TGI (OVCAR-8 ovarian): > 100 µM
GI50 (HL-60(TB) leukemia): 2.61 µM
TGI (HL-60(TB) leukemia): 20.8 µM
GI50 (NCI-H226 lung): 1.59 µM
TGI (NCI-H226 lung): 40.8 µM
GI50 (T-47D breast): 0.895 µM
TGI (T-47D breast): 10.2 µM
GI50 (SF-268 CNS): 2.2 µM
TGI (SF-268 CNS): 50.2 µM
GI50 (HOP-92 NSCLC): 2.37 µM
TGI (HOP-92 NSCLC): 20.7 µM
GI50 (UACC-62 melanoma): 1.91 µM
TGI (UACC-62 melanoma): 14.6 µM
GI50 (SK-MEL-5 melanoma): 3.07 µM
TGI (SK-MEL-5 melanoma): 14.4 µM
GI50 (K-562 leukemia): 6.24 µM
TGI (K-562 leukemia): > 100 µM
GI50 (CAKI-1 renal): 1.11 µM
TGI (CAKI-1 renal): 12.7 µM
GI50 (M14 melanoma): 3.69 µM
TGI (M14 melanoma): 18 µM
GI50 (SK-OV-3 ovarian): 2.18 µM
TGI (SK-OV-3 ovarian): 7.09 µM
GI50 (COLO 205 colon): 5.58 µM
TGI (COLO 205 colon): 21.2 µM
GI50 (HS 578T breast): 1.14 µM
TGI (HS 578T breast): 4.6 µM
GI50 (HOP-62 NSCLC): 1.5 µM
TGI (HOP-62 NSCLC): 27.3 µM
GI50 (TK-10 renal): 0.504 µM
TGI (TK-10 renal): 9.78 µM
GI50 (KM12 colon): 6.73 µM
TGI (KM12 colon): 75.5 µM
GI50 (UACC-257 melanoma): 5.76 µM
TGI (UACC-257 melanoma): 23.1 µM
GI50 (ACHN renal): 0.739 µM
TGI (ACHN renal): 12.9 µM
GI50 (HCC-2998 colon): 4.3 µM
TGI (HCC-2998 colon): 66.1 µM
GI50 (UO-31 renal): 0.823 µM
TGI (UO-31 renal): 14.5 µM
GI50 (MCF7 breast): 1.77 µM
TGI (MCF7 breast): 12.8 µM
GI50 (LOX IMVI melanoma): 3.31 µM
TGI (LOX IMVI melanoma): 24.6 µM
GI50 (OVCAR-3 ovarian): 1.35 µM
TGI (OVCAR-3 ovarian): 12.3 µM
GI50 (SK-MEL-2 melanoma): 5.55 µM
TGI (SK-MEL-2 melanoma): 44.6 µM
GI50 (SNB-19 CNS): 2.86 µM
TGI (SNB-19 CNS): 47.8 µM
GI50 (NCI-H460 lung): 2.73 µM
TGI (NCI-H460 lung): 15.8 µM
GI50 (A549 NSCLC): 1.55 µM
TGI (A549 NSCLC): 15.3 µM
GI50 (OVCAR-5 ovarian): 2.32 µM
TGI (OVCAR-5 ovarian): > 100 µM
GI50 (NCI/ADR-RES ovarian): 3.2 µM
TGI (NCI/ADR-RES ovarian): 35.5 µM
GI50 (MOLT-4 leukemia): 2.68 µM
TGI (MOLT-4 leukemia): 8.4 µM
GI50 (NCI-H522 lung): 2.37 µM
TGI (NCI-H522 lung): 19.4 µM
GI50 (CCRF-CEM leukemia): 3.31 µM
TGI (CCRF-CEM leukemia): 26.2 µM
GI50 (SNB-75 CNS): 0.545 µM
TGI (SNB-75 CNS): 4.21 µM
GI50 (NCI-H23 lung): 5.26 µM
TGI (NCI-H23 lung): > 100 µM
GI50 (IGROV1 ovarian): 0.639 µM
TGI (IGROV1 ovarian): 2.88 µM
GI50 (RPMI-8226 leukemia): 3.51 µM
TGI (RPMI-8226 leukemia): 70.1 µM
GI50 (SF-539 CNS): 2.83 µM
TGI (SF-539 CNS): 13.3 µM
GI50 (HCT-116 colon): 3.91 µM
TGI (HCT-116 colon): 28.3 µM
GI50 (SN12C renal): 2.11 µM
TGI (SN12C renal): > 100 µM
GI50 (SK-MEL-28 melanoma): 2.76 µM
TGI (SK-MEL-28 melanoma): 15.3 µM
GI50 (MDA-MB-468 breast): 0.657 µM
TGI (MDA-MB-468 breast): 2.31 µM
GI50 (MALME-3M melanoma): 1.57 µM
TGI (MALME-3M melanoma): 10.1 µM
GI50 (HT29 colon): 3.26 µM
TGI (HT29 colon): 23 µM
GI50 (786-0 renal): 1.82 µM
TGI (786-0 renal): 14.7 µM
GI50 (RXF 393 renal): 1.14 µM
TGI (RXF 393 renal): 5.22 µM
GI50 (SW-620 colon): 5.96 µM
TGI (SW-620 colon): 27.5 µM
GI50 (MDA-MB-435): 3.67 µM
TGI (MDA-MB-435): 16.9 µM
GI50 (HCT-15 colon): 3.49 µM
TGI (HCT-15 colon): 30.3 µM
GI50 (SR leukemia): 3.24 µM
TGI (SR leukemia): > 100 µM
